Reference: paper PMC9127750, “Structure-based design of CDC42 effector interaction inhibitors for the treatment of cancer” (Cell reports, 2022)
Values joined by “and” are separate entries in the source; they are usually repeats but may differ in a detail not shown here. Identical values can stand only once.

Tested on: WM3248 melanoma cells, 486 antibodies
Assay: Reverse phase protein arrays (RPPA)
Assay type: cell-based, Human
Details: normalized to 0
Text: Pellets were snap frozen in liquid nitrogen and shipped to MD Anderson Cancer Center core RPPA facility for RPPA analysis (Table S5). Three biological replicates for each sample were generated.
Nomenclatures on the RPPA heatmaps: name_of_antibody.species_of_antibody.status_of_antibody. V - antibody validated; C - validation of antibody in progress; Q - antibody nonspecific; E – under evaluation; antibodies raised in M - mouse, G - goat, R - rabbit, or T - rat.

## CN(C)c1cccc(Nc2cc(-c3ccccc3)nc(C3CCNCC3)n2)c1 [ARN22089, N1,N1-dimethyl-N3-(6-phenyl-2-(piperidin-4-yl)pyrimidin-4-yl)benzene-1,3-diamine]
10, replicates 1-3
  GSK.3B.R.C Norm_10: 0.867 and 0.924 and 0.907
  GSK.3a.b.M.V Norm_10: 0.998 and 1.049
  GSK.3a.b_pS21_S9.R.V Norm_10: 1.903 and 0.801
  Gab2.R.V Norm_10: 1.165 and 1.098 and 0.933
  Gli1.R.C Norm_10: 0.913 and 0.965 and 1.136
  Gli3.R.C Norm_10: 1.151 and 1.082 and 1.169
  Glucocorticoid.Receptor.R.V Norm_10: 1.159 and 1.201 and 0.996
  Glutamate.D1.2.R.V Norm_10: 0.997 and 1.319 and 1.150
  Glutaminase.R.C Norm_10: 0.936 and 1.126 and 1.162
  Granzyme.B.R.V Norm_10: 1.207 and 0.777 and 0.921
  Grp75.R.C Norm_10: 1.100 and 1.356 and 0.930
  Gys.R.V Norm_10: 0.972 and 0.858 and 0.963
  Gys_pS641.R.V Norm_10: 0.959 and 0.885
  H2AX_pS139.R.C Norm_10: 0.952 and 0.894
  H2AX_pS140.M.C Norm_10: 0.944 and 1.316 and 1.153
  HER2.M.V Norm_10: 1.003 and 1.056
  HER2_pY1248.R.V Norm_10: 0.907 and 0.828 and 1.009
  HER3.R.V Norm_10: 0.945 and 1.026 and 0.936
  HER3_pY1289.R.C Norm_10: 1.083 and 1.014
  HES1.R.V Norm_10: 1.156 and 0.918 and 0.849
  Heregulin.R.V Norm_10: 0.988 and 0.972 and 0.854
  eEF2.R.C Norm_10: 1.541 and 1.276 and 1.659
  eEF2K.R.V Norm_10: 1.101 and 1.387 and 1.115
  eIF4E.R.V Norm_10: 1.636 and 0.500 and 0.846
  eIF4E_pS209.R.V Norm_10: 0.984 and 0.803
  eIF4G.R.C Norm_10: 0.963
20, average
  DRP1.R.V Norm_20 Average: 0.964
  DUSP4.R.V Norm_20 Average: 0.723
  DUSP6.R.C Norm_20 Average: 1.555
  Dvl3.R.V Norm_20 Average: 1.031
  E2F1.R.V Norm_20 Average: 1.247
  E.Cadherin.R.V Norm_20 Average: 0.854
  EGFR.R.V Norm_20 Average: 1.132
  EGFR_pY1068.R.C Norm_20 Average: 0.914
  EGFR_pY1173.R.V Norm_20 Average: 1.048
  EMA.M.C Norm_20 Average: 0.783
  ENY2.M.C Norm_20 Average: 0.952
  ER.a.R.V Norm_20 Average: 0.959
  ER.a_pS118.R.V Norm_20 Average: 1.311
  ERCC5.R.C Norm_20 Average: 1.110
  ERRalpha.R.V Norm_20 Average: 0.963
  EVI1.R.V Norm_20 Average: 0.976
  Elk1_pS383.R.C Norm_20 Average: 1.105
  Enolase.2.R.V Norm_20 Average: 0.948
  EphA2.R.V Norm_20 Average: 0.748
  EphA2_pS897.R.C Norm_20 Average: 0.630
  EphA2_pY588.R.C Norm_20 Average: 0.974
  Erk5.R.V Norm_20 Average: 0.917
  Ets.1.R.V Norm_20 Average: 1.379
  FABP5.R.C Norm_20 Average: 1.251
  FAK.R.C Norm_20 Average: 0.978
  FAK_pY397.R.V Norm_20 Average: 0.925
  FANCD2.R.V Norm_20 Average: 0.851
  FASN.R.V Norm_20 Average: 0.957
  FGF.basic.R.C Norm_20 Average: 1.005
  FN14.R.C Norm_20 Average: 1.106
  FOXM1.R.V Norm_20 Average: 0.936
  FRS2.alpha_pY196.R.V Norm_20 Average: 1.059
  FTO.R.V Norm_20 Average: 1.058
  Fibronectin.R.V Norm_20 Average: 1.193
  FoxO3a_pS318_S321.R.C Norm_20 Average: 1.005
  G6PD.R.V Norm_20 Average: 0.954
  GATA3.M.V Norm_20 Average: 1.318
  GATA6.R.V Norm_20 Average: 0.955
  GCLC.R.C Norm_20 Average: 1.023
  GCLM.R.V Norm_20 Average: 0.992
  GCN5L2.R.V Norm_20 Average: 0.995
  GGPS1.M.V Norm_20 Average: 1.022
  GRB2.R.V Norm_20 Average: 0.934
  GRB7.R.V Norm_20 Average: 0.995
  GSK.3B.R.C Norm_20 Average: 0.882
  GSK.3a.b.M.V Norm_20 Average: 0.925
  GSK.3a.b_pS21_S9.R.V Norm_20 Average: 1.221
  Gab2.R.V Norm_20 Average: 1.169
  Gli3.R.C Norm_20 Average: 1.301
  Glucocorticoid.Receptor.R.V Norm_20 Average: 1.170
  Glutamate.D1.2.R.V Norm_20 Average: 1.186
  Grp75.R.C Norm_20 Average: 1.195
  Gys_pS641.R.V Norm_20 Average: 0.856
  H2AX_pS139.R.C Norm_20 Average: 1.433
  H2AX_pS140.M.C Norm_20 Average: 1.232
